Tests used:
HCT116 and Hela cells = assay: Cell cycle analysis by flow cytometry; format: cell-based; conditions: FIG. 6, compared to control DIPE
Procedure: (§1) HCT116 and Hela cells were obtained from ATCC. For DNA content analysis, 2×10^5 cells were washed twice with PBS and fixed in 70% ethanol. Cells were treated with 100 units/mL RNase A for 20 minutes at 37° C., resuspended in cold PBS containing Alexa Fluor® 405 fluorescent stain (Invitrogen) according to the manufacturer's protocol. Cells were analyzed by flow cytometry.
For DNA replication analysis, 2×10^5 cells were incubated with 50 μmol/L bromodeoxyuridine (BrdUrd) for 30 minutes. Cells were fixed in 70% ethanol and BrdUrd incorporation was determined by flow cytometric analysis using an anti-BrdUrd-FITC antibody (Becton Dickinson, Franklin Lakes, N.J.) according to the manufacturer's protocol. To assess the degree of G2/M checkpoint, mitotic cells were detected by flow cytometry using the mitosis-specific antibody GF-7. Fixed cells were incubated for 30 minutes with GF7-phycoerythrin (PE) antibody (BD Biosciences Pharmingen), washed with PBS and analyzed by flow cytometry. FIG. 6 compares the results obtained with DIPE and formula IIIB.

HeLa cells = assay: TUNEL apoptosis assay with flow cytometry; format: cell-based; conditions: FIG. 7, compared to control DIPE
Excerpt: Programmed cell death (apoptosis) is an important homeostatic mechanism in the immune and other systems. The phenomenon of nuclear disintegration during apoptosis can be used as a marker to detect cells undergoing this process. While a variety of methods are available to detect apoptotic cells the TUNEL assay allows the rapid phenotypic identification of individual apoptotic cells using flow cytometry (FACS). Terminal transferase dUTP nick end labeling (TUNEL) is a common method for detecting DNA fragmentation that results from apoptosis. The assay based on the presence of nicks in the DNA that can be identified by terminal transferase, an enzyme that will catalyze the addition of dUTPs that are secondarily labeled with a marker. It may also label cells undergoing necrosis or cells that have suffered severe DNA damage.
as §1, with “Hela” for “HCT116 and Hela”, “cytometry to characterize the cell cycle. […]” for “cytometry.”

TNF-alpha mRNA = TNF-alpha mRNA level in LPS-stimulated PU5-1.8 macrophages (Northern blot); format: cell-based, murine
Procedure: This example provides an assay that can be used to screen compounds of Formula I for their ability to reduce the expression of cytokines (e.g., TNF-alpha) in a mammal.
The murine macrophage PU5-1.8 cell line is purchased from the American Type Culture Collection (ATCC, Rockville, Md.). Cells are grown in DMEM medium supplemented with […] sodium pyruvate, 0.1 mM nonessential amino acids, 2 mM glutamine and 5% fetal bovine serum (Life Technologies, Staten Island, N.Y.). Cells are maintained in a humidified atmosphere of 5% CO2-95% air at 37° C. Cells are passaged twice weekly by firmly tapping the side of the flask to dislodge the adherent cells. Both non-adherent and adherent cells are passaged. Exponentially growing cells are seeded at 5×10^5/mL, 4 mL per 60-mm dish 24 h prior to the experiment. Test compounds are delivered in 1 mL volumes of the medium added to each dish at the start of the experiment. All dishes are incubated at 37° C. in 5% CO2-95% air for 3 h.
The Tumor Necrosis Factor (TNF-alpha) cDNA is obtained from the ATCC (Rockville, Md.). […]
Hybridized bands are quantified by analyzing the images obtained by using a video densitometer (Applied Imaging Corporation, Santa Clara, Calif.). […]
Treatment of PU5-1.8 murine macrophages with LPS (100 ng/mL) for 3 h results in a significant increase (>7 fold) in the level of TNF-alpha mRNA as determined by Northern blot analysis. […]

Compound	cell-cycle arrest (HCT116 and Hela cells)	induction of apoptosis (HeLa cells)	inhibition of TNF-alpha mRNA accumulation (TNF-alpha mRNA; 10 μM added to LPS (100 ng/mL) treated cultures, 3 h) [%]	effect on TNF-alpha mRNA expression (TNF-alpha mRNA; 10 μM, cells without LPS)
COc1ccc(Oc2c(I)cc(C(C)=O)cc2I)cc1N [Formula IIIB, 1-(4-(3-amino-4-methoxyphenoxy)-3,5-diiodophenyl)ethanone]	cell-cycle arrest	induction of apoptosis	–	–
COc1cc2c(c(OC)c1OC)-c1ccc(OC)c(=O)cc1[C@@H](NC(C)=O)CC2 [colchicine]	–	–	68	no effect

From patent US7538252B2, “Drug design for tubulin inhibitors, compositions, and methods of treatment thereof” (BiPar Sciences, Inc., priority 2006, dated 2009)
